Usually IC50 stands for the midpoint of a concentration-inhibition curve. A low value points to inhibition by little substance.

T1 sequence (P13612 34-1032): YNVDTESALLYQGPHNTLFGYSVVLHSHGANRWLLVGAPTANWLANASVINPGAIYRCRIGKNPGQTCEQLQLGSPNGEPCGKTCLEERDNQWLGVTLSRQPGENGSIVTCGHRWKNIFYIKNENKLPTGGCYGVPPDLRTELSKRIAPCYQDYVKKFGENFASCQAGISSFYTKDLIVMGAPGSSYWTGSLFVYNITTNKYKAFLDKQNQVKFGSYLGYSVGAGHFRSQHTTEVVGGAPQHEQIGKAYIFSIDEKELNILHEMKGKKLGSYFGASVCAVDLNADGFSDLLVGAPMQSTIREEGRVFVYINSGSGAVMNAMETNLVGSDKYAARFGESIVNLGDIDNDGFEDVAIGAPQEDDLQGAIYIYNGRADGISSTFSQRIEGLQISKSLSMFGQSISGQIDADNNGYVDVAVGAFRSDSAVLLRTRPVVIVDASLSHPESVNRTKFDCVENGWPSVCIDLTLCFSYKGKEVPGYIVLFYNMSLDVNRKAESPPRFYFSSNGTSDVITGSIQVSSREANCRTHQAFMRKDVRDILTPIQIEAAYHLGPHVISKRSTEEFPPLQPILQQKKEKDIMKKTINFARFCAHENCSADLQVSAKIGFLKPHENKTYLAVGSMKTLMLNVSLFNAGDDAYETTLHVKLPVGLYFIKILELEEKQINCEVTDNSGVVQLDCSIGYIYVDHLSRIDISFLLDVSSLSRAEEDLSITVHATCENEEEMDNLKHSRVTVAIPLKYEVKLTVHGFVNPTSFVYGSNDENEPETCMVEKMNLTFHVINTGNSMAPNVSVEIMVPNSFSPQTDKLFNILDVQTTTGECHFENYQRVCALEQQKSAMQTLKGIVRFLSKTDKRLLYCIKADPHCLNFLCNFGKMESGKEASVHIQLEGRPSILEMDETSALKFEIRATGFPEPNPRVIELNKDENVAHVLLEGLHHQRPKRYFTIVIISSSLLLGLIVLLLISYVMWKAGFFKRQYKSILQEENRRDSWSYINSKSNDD
T1 sequence (P05556 21-798): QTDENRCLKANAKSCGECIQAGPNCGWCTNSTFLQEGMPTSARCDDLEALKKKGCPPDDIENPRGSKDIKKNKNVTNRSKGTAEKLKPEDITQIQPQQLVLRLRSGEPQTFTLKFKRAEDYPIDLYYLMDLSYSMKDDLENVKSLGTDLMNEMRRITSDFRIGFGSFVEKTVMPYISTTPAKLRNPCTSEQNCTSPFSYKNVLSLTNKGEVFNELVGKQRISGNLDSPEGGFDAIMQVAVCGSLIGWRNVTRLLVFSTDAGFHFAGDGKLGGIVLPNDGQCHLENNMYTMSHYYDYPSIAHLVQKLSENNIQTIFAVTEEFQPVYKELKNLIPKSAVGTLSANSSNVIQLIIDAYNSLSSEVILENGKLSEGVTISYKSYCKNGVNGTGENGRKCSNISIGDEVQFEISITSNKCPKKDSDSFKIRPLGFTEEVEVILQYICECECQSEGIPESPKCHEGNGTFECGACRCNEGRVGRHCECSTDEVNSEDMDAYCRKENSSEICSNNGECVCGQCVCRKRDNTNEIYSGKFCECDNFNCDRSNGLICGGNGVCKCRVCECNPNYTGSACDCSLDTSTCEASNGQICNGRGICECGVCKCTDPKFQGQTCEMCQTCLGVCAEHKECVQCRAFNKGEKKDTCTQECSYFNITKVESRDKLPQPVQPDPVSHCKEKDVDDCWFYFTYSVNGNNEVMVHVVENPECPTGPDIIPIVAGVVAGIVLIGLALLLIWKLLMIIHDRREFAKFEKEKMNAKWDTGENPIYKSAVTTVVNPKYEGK

The assay has as its target T1, VLA4 (Homo sapiens, UniProt P05556+P13612).
T1 construct: endogenous in cells; host or cells: Ramos cells
In words: Inhibition of VLA4-dependent adhesion to BSA-CS1 (labelled Ramos cells). Type of assay: cell-based. As to conditions: binding of BCECF-AM labelled Ramos cells to CS1 peptide-coated wells, 2 mM MnCl2, 30 minutes at room temperature; IC50 range. An excerpt: For example, the cell adhesion inhibitory activity of these compounds may be measured by determining the concentration of inhibitor required to block the binding of VLA-4-expressing cells to fibronectin- or CS1-coated plates. In this assay microtiter wells are coated with either fibronectin (containing the CS-1 sequence) or CS-1. If CS-1 is used, it must be conjugated to a carrier protein, such as bovine serum albumin, in order to bind to the wells. Once the wells are coated, varying concentrations of the test compound are then added together with appropriately labelled, VLA-4-expressing cells. Alternatively, the test compound may be added first and allowed to incubate with the coated wells prior to the addition of the cells. The cells are allowed to incubate in the wells for at least 30 minutes. Following incubation, the wells are emptied and washed. Inhibition of binding is measured by quantitating the fluorescence or radioactivity bound to the plate for each of the various concentrations of test compound, as well as for controls containing no test compound.
VLA-4-expressing cells that may be utilized in this assay include Ramos cells, Jurkat cells, A375 melanoma cells, as well as human peripheral blood lymophocytes (PBLs). The cells used in this assay may be fluorescently or radioactively labelled.
This assay was used to assess the potency of VLA4-directed inhibitory compounds of this invention.
We dissolved BSA-SMCC (Pierce Chemical, Rockford, Ill.; Catalog # 77115) in H2O at a concentration of 10 mg/mL. [SEQ ID NO:4]: […](“Cys-Tyr-CS1 peptide”), which we synthesized by conventional solid phase chemistry and purified by HPLC, was dissolved in 10 mM HEPES pH 5, 50 mM NaCl and 0.1 mM EDTA also at a concentration of 10 mg/mL. We then mixed 500 μL of BSA-SMCC, 250 μL of Cys-Tyr-CS1 peptide and 75 μL of […] and allowed the conjugation reaction to proceed for 30 minutes. We stopped the reaction by adding 1 μL of beta-mercaptoethanol. Samples were analyzed for cross-linking by SDS-PAGE. This reaction produced multiple molecules of the Cys-Tyr-CS1 peptide conjugate to each BSA molecule.
We coated the wells of a Linbro titertek polystyrene 96-well flat bottom plate (Flow Laboratories, Maclean, Va.; catalog #76-231-05) with 100 μL of the above-described BSA-CS1 solution diluted to 1 μg/mL in 0.05 M NaHCO3 (15 mM NaHCO3, 35 mM Na2CO3) pH 9.2. Some wells were not coated with CS1 in order to assess non-specific cell binding (NSB). The plate was then incubated overnight at 4° C.
Following this incubation, the contents of the wells were removed by inverting and blotting the plate. All of the wells were then blocked with 100 μL of 1% BSA in PBS, 0.02% NaN3, for a minimum of one hour at room temperature.
3. Preparation of Fluorescently Labelled Ramos Cells Ramos cells are grown, maintained and labelled in RPMI 1640 culture medium containing 1% BSA. Just prior to running the assay, we added 2′,7′-bis-(2-carboxyethyl)5 (and -6) carboxyfluorescein acetoxymethyl ester (“BCECF-AM”; Molecular Probes Inc., Eugene, Oreg.; catalog #B-1150) to a final concentration of 2 μM to a culture of Ramos cells (4×10^6 cells/mL). We incubated the cells for 20 minutes at 37° C.
Following labelling, the cells were washed twice in assay buffer (24 mM TRIS, 137 mM NaCl, 2.7 mM KCl, pH 7.4, containing 0.1% BSA and 2 mM glucose) to remove any cations originating from the culture medium. The cells were then resuspended in assay buffer to 4×10^6 cells/mL and 2 mM MnCl2 was added to upregulate VLA4 on the surface of the cells.
Immediately prior to running the assay, we removed the BSA blocking solution from the 96-well plates and washed the wells with 100 μL of assay buffer. We then added to each well 25 μL of test cell adhesion inhibitory compound at 2× the final concentration and 25 μL of the labelled Ramos cells. Final concentrations were selected across a range of anticipated IC50s, usually between 0.01 nM–10 μM. […]
The compound `COc1ccc(C(CC(=O)O)NC(=O)C(CCSC)NC(=O)Cc2ccccc2)cc1` (centres unmarked) [compound 1175] displayed an IC50 of 0.05 to 10 µM.

Compound `COc1ccc(C(CC(=O)O)NC(=O)C(CC(C)C)NC(=O)Cc2ccc(NC(=O)Nc3ccccc3)cc2)cc1` (centres unmarked) [compound 1088] returned an IC50 below 0.05 µM.

The compound `CC(C)CC(NC(=O)Cc1ccccn1)C(=O)NC(CC(=O)O)c1ccccc1` (centres unmarked) [compound 1004] gave a concentration for half-maximal inhibition (IC50) above 10 µM.

As to `CC(C)CC(NC(=O)Cc1ccc(NC(=O)c2ccccc2)cc1)C(=O)NC(CC(=O)O)c1ccccc1` (centres unmarked) [compound 1015], the IC50 was in the range of 0.05 to 10 µM.

The compound `CC(C)CC(NC(=O)Cc1ccc(O)c(O)c1)C(=O)NC(CC(=O)O)c1ccccc1` (centres unmarked) [compound 1098] showed a 50% inhibitory concentration (IC50) above 10 µM.

`COc1ccc(C(CC(=O)O)NC(=O)C(CC(C)C)NC(=O)Cc2ccc(NC(=O)Nc3nccs3)cc2)cc1` (centres unmarked) [compound 1180]: the IC50 lay in the range of 0.05 to 10 µM.

As for `CC(C)CC(NC(=O)Cc1ccc2ccccc2c1)C(=O)NC(CC(=O)O)c1ccccc1` (centres unmarked) [compound 1022], the IC50 was above 10 µM.

Compound `CC(C)CC(NC(=O)Cc1ccc(NC(=O)OCc2ccccc2)cc1)C(=O)NC(CC(=O)O)c1ccccc1` (centres unmarked) [compound 1101] registered an IC50 above 10 µM.

For `CC(C)CC(NC(=O)Cc1ccc(NC(=O)Cc2ccccc2)cc1)C(=O)NC(CC(=O)O)c1ccccc1` (centres unmarked) [compound 1023], the IC50 fell in the range of 0.05 to 10 µM.

Compound `COc1cc(CC(=O)NC(CC(C)C)C(=O)NC(CC(=O)O)c2ccc3c(c2)OCO3)ccc1NC(=O)Nc1ccccc1C` (centres unmarked) [compound 1221] registered an IC50 below 0.05 µM.

The compound `CSCCC(NC(=O)Cc1ccccc1)C(=O)NC(CC(=O)O)c1ccc2c(c1)OCO2` (centres unmarked) [compound 1164] showed a 50% inhibitory concentration (IC50) of 0.05 to 10 µM.

Regarding `CC(C)CC(NC(=O)Cc1ccc(NC(=O)Nc2ccccc2Cl)cc1)C(=O)NC(CC(=O)O)c1ccc2c(c1)OCO2` (centres unmarked) [compound 1185], the IC50 is below 0.05 µM.

As to `CC(C)CC(NC(=O)Cc1cccc(NC(=O)c2ccccc2)c1)C(=O)NC(CC(=O)O)c1ccccc1` (centres unmarked) [compound 1020], the half-inhibitory concentration (IC50) is above 10 µM.

On to `COc1ccc(C(CC(=O)O)NC(=O)C(CC(C)C)NC(=O)Cc2ccc(NC(=O)Nc3ccccn3)cc2)cc1` (centres unmarked) [compound 1194], for which the IC50 was in the range of 0.05 to 10 µM.

The compound `CC(C)CC(NC(=O)Cc1ccc(NC(=O)Nc2ccccc2)cc1)C(=O)NC(CC(=O)O)Cc1ccccc1` (centres unmarked) [compound 1063] came in with an IC50 of 0.05 to 10 µM.

Take `CC(C)CC(NC(=O)Nc1ccccc1)C(=O)NC(CC(=O)O)c1ccccc1` (centres unmarked) [compound 1086]: the IC50 lay in the range of 0.05 to 10 µM.

In turn, `COc1cccc(C(CC(=O)O)NC(=O)C(CC(C)C)NC(=O)Cc2ccc(O)cc2)c1` (centres unmarked) [compound 1146] came in with a half-maximal inhibitory concentration (IC50) of 0.05 to 10 µM.

`CC(C)CC(NC(=O)Cc1ccc(NC(=O)Nc2cccnc2)cc1)C(=O)NC(CC(=O)O)c1ccc2c(c1)OCO2` (centres unmarked) [compound 1080] came in with an IC50 of 0.05 to 10 µM.

For `CC(C)CC(NC(=O)Cc1ccc(N)cc1)C(=O)NC(CC(=O)O)c1ccccc1` (centres unmarked) [compound 1103], the IC50 is above 10 µM.

For the compound `Cc1ccccc1NC(=O)Nc1ccc(CC(=O)NC(CC(C)C)C(=O)NC(CC(=O)O)c2ccc3c(c2)OCO3)cc1` (centres unmarked) [compound 1282], the IC50 was below 0.05 µM.

As to `CC(C)CC(NC(=O)Cc1ccc(O)cc1)C(=O)NC(CC(=O)O)c1ccc2c(c1)OCO2` (centres unmarked) [compound 1006], the IC50 lay within 0.05 to 10 µM.

`CC(=O)NCCCCC(NC(=O)Cc1ccc(NC(=O)Nc2ccccc2C)cc1)C(=O)NC(CC(=O)O)c1ccc2c(c1)OCO2` (centres unmarked) [compound 1270] registered a 50% inhibitory concentration (IC50) below 0.05 µM.

The compound `COc1nc(CC(=O)NC(CC(C)C)C(=O)NC(CC(=O)O)c2ccc3c(c2)OCO3)ccc1NC(=O)Nc1ccccc1C` (centres unmarked) [compound 1336] displayed an IC50 below 0.05 µM.

The compound `CC(C)CC(NC(=O)Cc1cccc(NC(=O)OCc2ccccc2)c1)C(=O)NC(CC(=O)O)c1ccccc1` (centres unmarked) [compound 1031] showed an IC50 above 10 µM.

In turn, `CC(C)CC(NC(=O)Cc1ccc(NC(=O)Nc2cccc(Cl)c2)cc1)C(=O)NC(CC(=O)O)c1ccc2c(c1)OCO2` (centres unmarked) [compound 1181] gave an IC50 of 0.05 to 10 µM.

Turning to `CC(C)CC(NC(=O)Cc1ccc(Cl)cc1)C(=O)NC(CC(=O)O)c1ccccc1` (centres unmarked) [compound 1010], the IC50 fell in the range of 0.05 to 10 µM.

`CC(C)CC(C(=O)NC(CC(=O)O)c1ccc2c(c1)OCO2)N(C)C(=O)Cc1ccc(NC(=O)Nc2ccccc2)cc1` (centres unmarked) [compound 1055] came in with an IC50 below 0.05 µM.

`CC(C)CC(NC(=O)Nc1ccc(NC(=O)Nc2ccccc2)cc1)C(=O)NC(CC(=O)O)c1ccccc1` (centres unmarked) [compound 1110]: the IC50 lay in the range of 0.05 to 10 µM.

The compound `CC(C)CC(NC(=O)CCc1ccccc1)C(=O)NC(CC(=O)O)c1ccccc1` (centres unmarked) [compound 1150] came in with an IC50 above 10 µM.

`CC(C)CC(NC(=O)Cc1ccc(NC(=O)c2ccccc2)cc1)C(=O)NC(CC(=O)O)c1ccc2c(c1)OCO2` (centres unmarked) [compound 1075] came in with an IC50 of 0.05 to 10 µM.

`COc1ccccc1C(CC(=O)O)NC(=O)C(CC(C)C)NC(=O)Cc1ccc(O)cc1` (centres unmarked) [compound 1070]: the concentration for half-maximal inhibition (IC50) was 0.05 to 10 µM.

The compound `CCCCC(NC(=O)Cc1ccccc1)C(=O)NC(CC(=O)O)c1ccccc1` (centres unmarked) [compound 1039] yielded a half-inhibitory concentration (IC50) of 0.05 to 10 µM.

Compound `CC(C)CC(NC(=O)Cc1ccc(NC(=O)Nc2ccncc2)cc1)C(=O)NC(CC(=O)O)c1ccc2c(c1)OCO2` (centres unmarked) [compound 1182] yielded an IC50 of 0.05 to 10 µM.

`CCC(C)C(NC(=O)Cc1ccc(NC(=O)Nc2ccccc2)cc1)C(=O)NC(CC(=O)O)c1ccc2c(c1)OCO2` (centres unmarked) [compound 1133] had an IC50 of 0.05 to 10 µM.

`CC(C)CC(NC(=O)Cc1cccc(NC(=O)Nc2ccccc2)c1)C(=O)NC(CC(=O)O)c1ccccc1` (centres unmarked) [compound 1054] yielded an IC50 of 0.05 to 10 µM.

On to `CC(C)CC(NC(=O)C1(c2ccccc2)CC1)C(=O)NC(CC(=O)O)c1ccc2c(c1)OCO2` (centres unmarked) [compound 1188], for which the IC50 was above 10 µM.

As for `CNC(=O)Nc1ccccc1C(=O)Nc1ccc(CC(=O)NC(CC(C)C)C(=O)NC(CC(=O)O)c2ccccc2)cc1` (centres unmarked) [compound 1029], the half-maximal inhibitory concentration (IC50) is above 10 µM.

On to `COc1ccc(C(CC(=O)O)NC(=O)C(CC(C)C)NC(=O)Cc2ccc(O)cc2)cc1` (centres unmarked) [compound 1173], for which the IC50 was in the range of 0.05 to 10 µM.

As for `CC(C)CC(NC(=O)Cc1ccc(N)cc1)C(=O)NC(CC(=O)O)c1ccccc1` (centres unmarked) [compound 1016], the IC50 was above 10 µM.

On to `CSCCC(NC(=O)Cc1ccc(NC(=O)Nc2ccccc2)cc1)C(=O)NC(CC(=O)O)c1ccc2c(c1)OCO2` (centres unmarked) [compound 1163], for which the IC50 was 0.05 to 10 µM.

On to `O=C(O)CC(NC(=O)C(Cc1ccccc1)NC(=O)Cc1ccc(NC(=O)Nc2ccccc2)cc1)c1ccccc1` (centres unmarked) [compound 1130], for which the IC50 fell in the range of 0.05 to 10 µM.

The compound `O=C(O)CC(NC(=O)C(CC(=O)N1CCSCC1)NC(=O)Cc1ccc(NC(=O)Nc2ccccc2)cc1)c1ccc2c(c1)OCO2` (centres unmarked) [compound 1176] returned an IC50 of 0.05 to 10 µM.

`Cc1ccccc1NC(=O)Nc1ccc(CC(=O)NC(CC(C)C)C(=O)NC(CC(=O)O)c2ccc(C(=O)O)cc2)cc1` (centres unmarked) [compound 1321]: the IC50 was below 0.05 µM.

`CC(C)CC(NC(=O)Cc1ccccc1)C(=O)NC(CC(=O)O)Cc1ccccc1` (centres unmarked) [compound 1157] yielded an IC50 above 10 µM.

`COc1ccc(C(CC(=O)O)NC(=O)C(CC(C)C)NC(=O)Cc2ccc(NC(=O)Nc3ccccn3)cc2)cc1OC` (centres unmarked) [compound 1218] had an IC50 of 0.05 to 10 µM.

Regarding `CC(C)CC(NC(=O)Cc1ccc(NS(=O)(=O)c2ccccc2)cc1)C(=O)NC(CC(=O)O)c1ccc2c(c1)OCO2` (centres unmarked) [compound 1074], the IC50 is 0.05 to 10 µM.

`CC(C)CC(NC(=O)Cc1ccc(NC(=O)Nc2ccccc2)cc1)C(=O)NC(CC(=O)O)c1ccc2c(c1)CCC2` (centres unmarked) [compound 1128] returned an IC50 of 0.05 to 10 µM.

(Values after patent US7001921B1, “Cell adhesion inhibitors” (Biogen Idec MA Inc., priority 1995, dated 2006).)
